From the kinase profiling compilation of Christmann-Franck et al. (2016)

Assays:
Assay in all cases: radiometric filter-binding kinase assay, Kinase HotSpot
Conditions in all cases: compound 0.5 µM; ATP 10 µM
[1] = target: AURKA (human) (UniProt O14965)
[2] = target: AURKB (human) (UniProt Q96GD4)
[3] = target: CLK2 (human) (UniProt P49760)
[4] = target: DAPK2 (human) (UniProt Q9UIK4)
[5] = target: EPHB1 (human) (UniProt P54762)
[6] = target: ERBB2 (human) (UniProt P04626)
[7] = target: FGFR1 (human) (UniProt P11362)
[8] = target: FGFR2 (human) (UniProt P21802)
[9] = target: FLT1 (human) (UniProt P17948)
[10] = target: FYN (human) (UniProt P06241)
FYN (human), sequence (P06241 whole entry, looked up): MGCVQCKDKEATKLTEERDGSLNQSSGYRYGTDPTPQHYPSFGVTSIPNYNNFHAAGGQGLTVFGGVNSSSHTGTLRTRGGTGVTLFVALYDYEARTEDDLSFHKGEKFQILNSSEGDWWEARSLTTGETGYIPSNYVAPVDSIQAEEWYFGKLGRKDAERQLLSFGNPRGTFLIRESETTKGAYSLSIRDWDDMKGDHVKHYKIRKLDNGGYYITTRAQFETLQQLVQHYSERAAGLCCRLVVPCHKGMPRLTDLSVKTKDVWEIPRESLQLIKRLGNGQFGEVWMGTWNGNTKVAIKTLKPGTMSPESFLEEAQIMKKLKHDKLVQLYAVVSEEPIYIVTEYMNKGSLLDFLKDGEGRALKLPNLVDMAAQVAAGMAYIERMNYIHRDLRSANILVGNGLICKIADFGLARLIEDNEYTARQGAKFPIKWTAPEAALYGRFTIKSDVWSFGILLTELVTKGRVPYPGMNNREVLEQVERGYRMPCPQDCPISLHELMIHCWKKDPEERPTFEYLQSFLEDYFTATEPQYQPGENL

[11] = target: GRK6 (human) (UniProt P43250)
GRK6 (human), sequence (P43250 whole entry, looked up): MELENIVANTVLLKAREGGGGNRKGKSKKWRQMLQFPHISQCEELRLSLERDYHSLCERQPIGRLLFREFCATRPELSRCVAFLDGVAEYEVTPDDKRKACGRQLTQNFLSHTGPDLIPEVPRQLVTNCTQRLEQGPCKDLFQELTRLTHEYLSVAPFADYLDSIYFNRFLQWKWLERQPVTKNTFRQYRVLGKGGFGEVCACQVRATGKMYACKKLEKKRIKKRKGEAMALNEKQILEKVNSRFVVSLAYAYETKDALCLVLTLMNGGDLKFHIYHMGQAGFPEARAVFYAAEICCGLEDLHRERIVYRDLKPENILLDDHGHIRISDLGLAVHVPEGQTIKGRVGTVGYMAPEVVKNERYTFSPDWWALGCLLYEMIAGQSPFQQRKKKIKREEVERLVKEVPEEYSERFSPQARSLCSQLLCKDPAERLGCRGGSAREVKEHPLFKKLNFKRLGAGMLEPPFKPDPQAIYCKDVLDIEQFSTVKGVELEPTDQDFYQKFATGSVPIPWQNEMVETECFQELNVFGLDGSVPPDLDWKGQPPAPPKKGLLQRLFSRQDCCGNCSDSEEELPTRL

[12] = target: GSK3A (human) (UniProt P49840)
[13] = target: INSR (human) (UniProt P06213)
[14] = target: INSRR (human) (UniProt P14616)
[15] = target: JAK2 JH1 JH2 (human) (UniProt O60674)
[16] = target: MAP3K8 (human) (UniProt P41279)
[17] = target: MAPK1 (human) (UniProt P28482)
[18] = target: MAPK12 (human) (UniProt P53778)
[19] = target: MAPK13 (human) (UniProt O15264)
MAPK13 (human), sequence (O15264 whole entry, looked up): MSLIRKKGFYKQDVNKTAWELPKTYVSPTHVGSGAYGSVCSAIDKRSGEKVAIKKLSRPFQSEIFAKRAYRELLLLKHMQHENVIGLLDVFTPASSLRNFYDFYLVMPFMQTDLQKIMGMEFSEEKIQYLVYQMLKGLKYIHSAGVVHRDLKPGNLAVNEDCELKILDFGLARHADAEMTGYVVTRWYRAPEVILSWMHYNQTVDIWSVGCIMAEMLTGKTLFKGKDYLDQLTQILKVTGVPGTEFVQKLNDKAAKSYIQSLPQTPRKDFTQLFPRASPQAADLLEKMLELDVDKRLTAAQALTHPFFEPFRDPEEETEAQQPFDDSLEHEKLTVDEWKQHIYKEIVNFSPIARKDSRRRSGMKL

[20] = target: MAPK14 (human) (UniProt Q16539)
[21] = target: MAPKAPK5 (human) (UniProt Q8IW41)
[22] = target: MARK1 (human) (UniProt Q9P0L2)
[23] = target: MARK2 (human) (UniProt Q7KZI7)
MARK2 (human), sequence (Q7KZI7 whole entry, looked up): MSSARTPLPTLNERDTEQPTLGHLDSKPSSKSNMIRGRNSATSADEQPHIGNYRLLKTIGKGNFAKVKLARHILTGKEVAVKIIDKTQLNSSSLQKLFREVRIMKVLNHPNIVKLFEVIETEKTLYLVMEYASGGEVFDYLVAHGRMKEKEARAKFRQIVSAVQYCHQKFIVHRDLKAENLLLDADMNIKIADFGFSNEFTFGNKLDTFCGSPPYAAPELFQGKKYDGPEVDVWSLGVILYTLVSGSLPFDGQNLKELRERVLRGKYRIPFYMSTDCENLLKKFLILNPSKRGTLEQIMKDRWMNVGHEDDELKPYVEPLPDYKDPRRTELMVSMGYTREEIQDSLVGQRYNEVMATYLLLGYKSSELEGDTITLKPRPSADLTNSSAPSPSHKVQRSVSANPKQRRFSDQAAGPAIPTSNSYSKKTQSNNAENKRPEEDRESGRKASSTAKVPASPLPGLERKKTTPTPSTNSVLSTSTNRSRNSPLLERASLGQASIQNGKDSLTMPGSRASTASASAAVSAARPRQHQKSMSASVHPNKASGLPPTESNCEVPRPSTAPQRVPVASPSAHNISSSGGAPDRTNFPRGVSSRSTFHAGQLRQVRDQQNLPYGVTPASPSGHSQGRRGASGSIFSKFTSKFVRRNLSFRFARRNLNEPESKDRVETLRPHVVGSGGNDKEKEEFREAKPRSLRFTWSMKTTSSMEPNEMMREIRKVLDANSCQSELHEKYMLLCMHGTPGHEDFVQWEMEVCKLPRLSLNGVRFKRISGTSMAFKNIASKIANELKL

[24] = target: MUSK (human) (UniProt O15146)
[25] = target: PAK3 (human) (UniProt O75914)
[26] = target: PDGFRB (human) (UniProt P09619)
PDGFRB (human), sequence (P09619 whole entry, looked up): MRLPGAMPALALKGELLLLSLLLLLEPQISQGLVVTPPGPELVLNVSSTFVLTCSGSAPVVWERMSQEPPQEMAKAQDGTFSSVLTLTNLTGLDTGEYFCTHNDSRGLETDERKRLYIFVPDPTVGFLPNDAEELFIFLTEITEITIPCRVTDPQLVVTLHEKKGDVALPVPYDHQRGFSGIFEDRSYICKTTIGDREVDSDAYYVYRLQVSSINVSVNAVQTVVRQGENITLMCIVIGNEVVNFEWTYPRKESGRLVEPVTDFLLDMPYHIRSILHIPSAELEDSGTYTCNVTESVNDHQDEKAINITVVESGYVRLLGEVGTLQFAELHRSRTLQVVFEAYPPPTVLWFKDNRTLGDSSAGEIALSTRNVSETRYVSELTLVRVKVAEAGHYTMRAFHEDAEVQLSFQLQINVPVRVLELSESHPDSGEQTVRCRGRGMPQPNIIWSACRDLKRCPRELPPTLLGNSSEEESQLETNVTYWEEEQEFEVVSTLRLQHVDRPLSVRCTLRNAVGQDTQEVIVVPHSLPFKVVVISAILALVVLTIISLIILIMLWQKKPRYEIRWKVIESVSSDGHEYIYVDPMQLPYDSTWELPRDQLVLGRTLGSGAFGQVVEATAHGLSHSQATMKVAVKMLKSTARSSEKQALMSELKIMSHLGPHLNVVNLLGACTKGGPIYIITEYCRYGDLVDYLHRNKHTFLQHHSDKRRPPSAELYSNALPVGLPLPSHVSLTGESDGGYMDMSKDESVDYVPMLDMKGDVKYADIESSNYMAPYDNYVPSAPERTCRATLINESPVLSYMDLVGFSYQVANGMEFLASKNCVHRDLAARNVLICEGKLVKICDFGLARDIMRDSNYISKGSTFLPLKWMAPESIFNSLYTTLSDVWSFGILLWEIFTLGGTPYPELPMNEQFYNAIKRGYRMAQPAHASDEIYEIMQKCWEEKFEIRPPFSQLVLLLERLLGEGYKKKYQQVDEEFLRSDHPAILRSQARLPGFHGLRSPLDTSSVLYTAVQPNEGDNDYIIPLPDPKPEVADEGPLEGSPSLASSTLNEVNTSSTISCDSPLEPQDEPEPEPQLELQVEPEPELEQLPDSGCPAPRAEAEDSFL

[27] = target: PDPK1 (human) (UniProt O15530)
[28] = target: PHKG2 (human) (UniProt P15735)
PHKG2 (human), sequence (P15735 whole entry, looked up): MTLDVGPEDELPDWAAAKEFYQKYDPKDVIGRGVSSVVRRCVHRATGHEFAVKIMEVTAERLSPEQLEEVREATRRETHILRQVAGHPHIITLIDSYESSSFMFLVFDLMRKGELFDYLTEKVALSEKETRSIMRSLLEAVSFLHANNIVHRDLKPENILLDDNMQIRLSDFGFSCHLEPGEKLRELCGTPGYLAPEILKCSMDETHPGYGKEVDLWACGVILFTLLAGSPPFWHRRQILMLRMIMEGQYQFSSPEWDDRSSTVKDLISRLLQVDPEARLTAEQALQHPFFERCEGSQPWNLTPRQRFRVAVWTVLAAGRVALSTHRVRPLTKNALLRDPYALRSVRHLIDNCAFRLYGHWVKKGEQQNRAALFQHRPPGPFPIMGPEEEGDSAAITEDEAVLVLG

[29] = target: PIM2 (human) (UniProt Q9P1W9)
[30] = target: PLK1 (human) (UniProt P53350)
[31] = target: PLK2 (human) (UniProt Q9NYY3)
[32] = target: PRKACA (human) (UniProt P17612)
[33] = target: PRKCB1 (human) (UniProt P05771)
[34] = target: PRKCE (human) (UniProt Q02156)
[35] = target: PRKD3 (human) (UniProt O94806)
[36] = target: RPS6KA1 KD1 KD2 (human) (UniProt Q15418)
[37] = target: RPS6KB1 (human) (UniProt P23443)
RPS6KB1 (human), sequence (P23443 whole entry, looked up): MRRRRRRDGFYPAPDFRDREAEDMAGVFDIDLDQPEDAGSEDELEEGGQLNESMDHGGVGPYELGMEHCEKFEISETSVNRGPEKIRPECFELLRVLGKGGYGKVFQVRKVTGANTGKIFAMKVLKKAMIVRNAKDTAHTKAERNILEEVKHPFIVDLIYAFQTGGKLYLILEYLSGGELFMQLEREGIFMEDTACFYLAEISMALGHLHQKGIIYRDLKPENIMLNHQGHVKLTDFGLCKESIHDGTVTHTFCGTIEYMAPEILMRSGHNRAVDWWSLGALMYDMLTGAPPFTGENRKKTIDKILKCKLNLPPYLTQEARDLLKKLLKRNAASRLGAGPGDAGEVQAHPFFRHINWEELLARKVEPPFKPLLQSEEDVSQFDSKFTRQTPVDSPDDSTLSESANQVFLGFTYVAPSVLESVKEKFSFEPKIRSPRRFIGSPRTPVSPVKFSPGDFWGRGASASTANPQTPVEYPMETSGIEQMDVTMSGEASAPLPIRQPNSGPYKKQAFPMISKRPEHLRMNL

[38] = target: TBK1 (human) (UniProt Q9UHD2)
[39] = target: TSSK2 (human) (UniProt Q96PF2)
TSSK2 (human), sequence (Q96PF2 whole entry, looked up): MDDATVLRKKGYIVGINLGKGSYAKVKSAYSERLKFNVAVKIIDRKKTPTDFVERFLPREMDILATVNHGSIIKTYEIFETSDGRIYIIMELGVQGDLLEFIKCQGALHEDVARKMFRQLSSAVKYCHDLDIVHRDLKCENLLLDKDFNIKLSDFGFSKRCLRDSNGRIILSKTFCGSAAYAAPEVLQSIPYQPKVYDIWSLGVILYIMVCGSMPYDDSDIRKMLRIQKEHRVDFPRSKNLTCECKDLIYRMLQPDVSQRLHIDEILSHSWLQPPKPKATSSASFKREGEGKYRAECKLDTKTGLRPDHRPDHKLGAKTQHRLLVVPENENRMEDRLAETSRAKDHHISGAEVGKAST

[40] = target: TYRO3 (human) (UniProt Q06418)
[41] = target: ULK2 (human) (UniProt Q8IYT8)
[42] = target: WNK2 (human) (UniProt Q9Y3S1)

AURKB (human), sequence (Q96GD4 whole entry, looked up): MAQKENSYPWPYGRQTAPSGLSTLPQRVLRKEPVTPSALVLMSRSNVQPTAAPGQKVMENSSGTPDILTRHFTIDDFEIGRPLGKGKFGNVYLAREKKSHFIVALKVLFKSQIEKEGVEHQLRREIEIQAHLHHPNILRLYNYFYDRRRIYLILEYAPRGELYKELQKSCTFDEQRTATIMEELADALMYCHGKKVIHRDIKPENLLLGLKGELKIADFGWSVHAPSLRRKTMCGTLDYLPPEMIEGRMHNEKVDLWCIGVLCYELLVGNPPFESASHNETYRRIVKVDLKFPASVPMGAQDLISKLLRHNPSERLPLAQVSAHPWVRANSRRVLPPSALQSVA

For `CCN(CC)C(=O)c1ccc(Nc2nc(OCC3CCCCC3)c3nc[nH]c3n2)cc1`, the residual activity [1] was 3.03%, the residual activity [2] was 30.1% and the residual activity [3] was 40.6%. For the same compound, the residual activity [4] was 91.7%, the residual activity [5] was 75.4% and the residual activity [6] was 99.4%. It also gave a residual activity [7] of 72.8%, a residual activity [8] of 76.6% and a residual activity [9] of 84%. For the same compound, the residual activity [10] was 62.6%, the residual activity [11] was 99.5% and the residual activity [12] was 80.3%. For the same compound, the residual activity [13] was 92.8%, the residual activity [14] was 80.8% and the residual activity [15] was 4.21%. For the same compound, the residual activity [16] was 101%, the residual activity [17] was 106% and the residual activity [18] was 99.4%. It also gave a residual activity [19] of 95.3%, a residual activity [20] of 94.7% and a residual activity [21] of 87.8%. The residual activity [22] was 82.7%, the residual activity [23] was 75.3% and the residual activity [24] was 77.5%. For the same compound, the residual activity [25] was 87.7%, the residual activity [26] was 54.6% and the residual activity [27] was 69.1%. The residual activity [28] was 96.6%, the residual activity [29] was 105% and the residual activity [30] was 91.4%. The residual activity [31] was 98.2%, the residual activity [32] was 93.7% and the residual activity [33] was 103%. For the same compound, the residual activity [34] was 76.6%, the residual activity [35] was 66.5% and the residual activity [36] was 57.1%. It also gave a residual activity [37] of 89.5%, a residual activity [38] of 25.4% and a residual activity [39] of 87.4%. The residual activity [40] was 90.4%, the residual activity [41] was 84.9% and the residual activity [42] was 88.6%.
With `CCCC(=O)Oc1ccc2[nH]c(C(=O)c3cc4ccccc4[nH]3)cc2c1` the residual activity [1] was 94.6%, the residual activity [2] was 97.1% and the residual activity [3] was 94.3%. The residual activity [4] was 88.4%, the residual activity [5] was 92.1% and the residual activity [6] was 85.9%. The residual activity [7] was 96%, the residual activity [8] was 100% and the residual activity [9] was 89.7%. For the same compound, the residual activity [10] was 102%, the residual activity [11] was 95.8% and the residual activity [12] was 94.1%. It also gave a residual activity [13] of 101%, a residual activity [14] of 97.9% and a residual activity [15] of 106%. The residual activity [16] was 97.6%, the residual activity [17] was 105% and the residual activity [18] was 93.7%. For the same compound, the residual activity [19] was 103%, the residual activity [20] was 102% and the residual activity [21] was 101%. For the same compound, the residual activity [22] was 96.4%, the residual activity [23] was 83.1% and the residual activity [24] was 79.8%. For the same compound, the residual activity [25] was 102%, the residual activity [26] was 91.2% and the residual activity [27] was 101%. It also gave a residual activity [28] of 117%, a residual activity [29] of 101% and a residual activity [30] of 101%. For the same compound, the residual activity [31] was 101%, the residual activity [32] was 96.6% and the residual activity [33] was 97.3%. The residual activity [34] was 91%, the residual activity [35] was 102% and the residual activity [36] was 91.3%. For the same compound, the residual activity [37] was 94.5%, the residual activity [38] was 119% and the residual activity [39] was 78%. For the same compound, the residual activity [40] was 101%, the residual activity [41] was 98.3% and the residual activity [42] was 113%.
With `CO[C@H]1CC2CC[C@@H](C)[C@@](O)(O2)C(=O)C(=O)N2CCCC[C@H]2C(=O)OC([C@H](C)C[C@@H]2CC[C@@H](O)[C@H](OC)C2)CC(=O)[C@H](C)/C=C(\C)[C@@H](O)[C@@H](OC)C(=O)[C@H](C)C[C@H](C)/C=C/C=C/C=C/1C` (stereo partly drawn) the residual activity [1] was 81.5%, the residual activity [2] was 95.2% and the residual activity [3] was 102%. The residual activity [4] was 112%, the residual activity [5] was 110% and the residual activity [6] was 97.3%. For the same compound, the residual activity [7] was 89.4%, the residual activity [8] was 110% and the residual activity [9] was 97.7%. The residual activity [10] was 109%, the residual activity [11] was 103% and the residual activity [12] was 106%. It also gave a residual activity [13] of 90.3%, a residual activity [14] of 102% and a residual activity [15] of 97.5%. For the same compound, the residual activity [16] was 99.8%, the residual activity [17] was 101% and the residual activity [18] was 107%. It also gave a residual activity [19] of 121%, a residual activity [20] of 99.1% and a residual activity [21] of 98%. The residual activity [22] was 98.8%, the residual activity [23] was 104% and the residual activity [24] was 87.7%. The residual activity [25] was 102%, the residual activity [26] was 108% and the residual activity [27] was 92.6%. It also gave a residual activity [28] of 108%, a residual activity [29] of 102% and a residual activity [30] of 97.8%. The residual activity [31] was 105%, the residual activity [32] was 99.8% and the residual activity [33] was 102%. For the same compound, the residual activity [34] was 105%, the residual activity [35] was 95.6% and the residual activity [36] was 104%. It also gave a residual activity [37] of 92.6%, a residual activity [38] of 94.7% and a residual activity [39] of 99.8%. For the same compound, the residual activity [40] was 98.5%, the residual activity [41] was 120% and the residual activity [42] was 103%.
With `O=C1Nc2ccc(Cl)cc2/C1=C/c1cc(Cl)c(O)c(Cl)c1` the residual activity [1] was 64.2%, the residual activity [2] was 9.19% and the residual activity [3] was 95.5%. It also gave a residual activity [4] of 135%, a residual activity [5] of 91% and a residual activity [6] of 107%. It also gave a residual activity [7] of 90.8%, a residual activity [8] of 92% and a residual activity [9] of 85%. The residual activity [10] was 73%, the residual activity [11] was 89.6% and the residual activity [12] was 76.1%. For the same compound, the residual activity [13] was 99.2%, the residual activity [14] was 100% and the residual activity [15] was 91.1%. The residual activity [16] was 93.1%, the residual activity [17] was 84.3% and the residual activity [18] was 90.5%. The residual activity [19] was 97.8%, the residual activity [20] was 74.6% and the residual activity [21] was 92.4%. The residual activity [22] was 89.5%, the residual activity [23] was 79.7% and the residual activity [24] was 65.5%. The residual activity [25] was 94.3%, the residual activity [26] was 76.9% and the residual activity [27] was 103%. The residual activity [28] was 98.4%, the residual activity [29] was 48.6% and the residual activity [30] was 99.8%. The residual activity [31] was 95.4%, the residual activity [32] was 101% and the residual activity [33] was 97.3%. The residual activity [34] was 100%, the residual activity [35] was 80.7% and the residual activity [36] was 48.4%. For the same compound, the residual activity [37] was 91%, the residual activity [38] was 86.8% and the residual activity [39] was 94.4%. It also gave a residual activity [40] of 94.9%, a residual activity [41] of 101% and a residual activity [42] of 115%.
